Patent US7629470B2, “Formation of tetra-substituted enamides and stereoselective reduction thereof” (Merck & Co., Inc., priority 2004, dated 2009)

Assay: Solubility of chiral amide in IPA
Assay type: physicochemical
Settings: organic solvent or mixture; in IPA (isopropyl alcohol); grams of chiral amide per liter of solvent; concentration up to 45° C. under vacuum
Method: After the hydrogenation was complete (Example 8), 64.9 g of solution was concentrated to 16.9 g up to 45° C. under vacuum. […] MTBE (348.2 g) was added, and the solution was washed with 250 mL of 10% NH4Cl solution. The organic solution was then washed an additional 3 times with water (248 mL for each wash). The residual organic solution was concentrated with MTBE (284.4 g) to azeotrope the water. The solution was concentrated to 53±5 g/kg. The final water concentration was 532 ppm. This solution was then seeded with chiral amide MTBE hemisolvate, 0.5 wt. %, and aged for 20 hours at 20-25° C. At this point, heptane was charge in three aliquots over specific periods of time. The first aliquot of heptane (54 mL), was charged in 9 hours. The second aliquot of heptane (90 mL) was charged in 6 hours. The third aliquot of heptane (294 mL) was charged in 3 hours. At the conclusion of the heptane charge, the solution was aged at 20-25° C. for 2 hours. The solution was filtered over a 5 micron fritted filter. A displacement wash was conducted using 164 mL of 5:1 n-heptane/MTBE, and the solids were dried at less than 45° C. under vacuum. The final water concentration was <0.5 wt. % (by KF). The final MTBE concentration was 11-12 wt. % (as a hemisolvate) and the final heptane concentration was <0.5 wt. % (both by GC). The chiral amide/MTBE hemisolvate was isolated in 90% yield, 99.3 LCAP.

Compound `C[C@H](NC(=O)C(C)(C)Oc1ccc(C(F)(F)F)cn1)[C@@H](Cc1ccc(Cl)cc1)c1cccc(C(N)=O)c1` [chiral amide, 3-{(1S,2S)-1-(4-chlorobenzyl)-2-[(2-methyl-2-{[5-(trifluoromethyl)pyridine-2-yl]oxy}propanoyl)amino]-propyl}benzamide] has a solubility of over 1350 mg/mL.
